Measured values as given in patent US20060134119A1, “Drugs containing galectin 9” (priority 2003, published 2006).

Tests used:
[1] = system: MOLT-4 cells; assay: Apoptosis analysis by PI method in MOLT-4 cells; assay type: cell-based, human
Procedure: (§1) MOLT-4 (T cell), Jurkat (T cell), BALL-1 (B cell), THP-1 (acute monocytic leukemia derived cell), and HL60 (acute promyelotic leukemia derived cell) cells were obtained from American Type Culture Collection (ATCC). All the cell lines were maintained in an RPMI-1640 medium (Sigma, St. Louis, US) supplemented with 10% FCS in 5% Co2 at 37° C. Lactose (30 mM) was added to the culture medium to inhibit Gal-9 activity. The same concentration of sucrose was used as a control.
Cells that underwent apoptosis induction were centrifuged at 4° C. for 5 min at 1,000 rpm, and the cell pellet was resuspended in PBS (300 μL), and adjusted to a final concentration of 70% by gradually adding 100% cold ethanol (700 μL) to the suspended cells with vortexing. Cells were fixed by incubation at 4° C. for 30 min, and centrifuged at 4° C. for 5 min at 1,000 rpm after adding PBS (1 mL), and the cell pellet was resuspended in PBS (440 μL). Cells were incubated with ribonuclease A (10 μL; the final concentration 50 μg/mL, Sigma, St. Louis, Mo., US) at 37° C. for 30 min, and with 2.5 mg/mL propidium iodide (4 μL; the final concentration of PI 20 μg/mL, Sigma) at 4° C. for 10 min in the dark. Stained cells were analyzed by flow cytometry (Sandstrom, K. et al., J Immunol Methods, 240: 55 (2000) and Zhang L. et al., Cancer Lett, 142: 129 (1999)) after removing aggregated cells through a nylon mesh and increasing the cell volume with PBS.
(3) Cultured Cell Lines Were Incubated With rGal-9 for the Appropriate Length of Time, 24 hr for Instance. Apoptosis Analysis was Conducted by the Above-Described PI Method (1).
(§2) Apoptotic activity was measured by the PI method. When cells are incubated with galectin-9, washed, then subjected to alcohol-fixation, and fragmented DNAs flow out of the cell. Subsequently, incubation with PI leads to a reduction in the fluorescence intensity of apoptotic cells. Apoptosis was examined by the percentage of the cells wherein their fluorescence intensity was reduced. […] This induction was at the same level as H2O2 (hydrogen peroxide solution) that was used as a positive control. In addition, the same results were obtained by another method for examining apoptosis, TUNEL assay.

[2] = system: MOLT-4 cells; assay: Apoptosis analysis with Annexin V-PI in MOLT-4 cells; assay type: cell-based, human; details: 1 μM Gal-9; FIG. 1B; control 13.2%
Procedure: MEBCYTO (registered trademark) Apoptosis kit (MBL, Nagoya, Japan) was used for apoptosis analysis with Annexin V-PI. Experiments were carried out according to the manufacturer's instruction as follows. Briefly, cells that underwent apoptosis induction (2×10^5 cells/sample) were washed with PBS, and resuspended in the binding buffer. After adding Annexin V-FITC and 5 μL of PI (final concentration 5 μg/mL) in the kit to the cell suspension, cells were incubated for 15 min at room temperature in the dark. Analysis was conducted using flow cytometry (EPICS XL-MCL, CouHer, Miami, Fla., US).

[3] = system: BALL-1; assay: Apoptosis analysis by PI method in BALL-1 cells; assay type: cell-based
Procedure: as §1
Cells that underwent apoptosis induction were centrifuged at 4° C. for 5 min at 1,000 rpm, and the cell pellet was resuspended in PBS (300 μL), and adjusted to a final concentration of 70% by gradually adding 100% cold ethanol (700 μL) to the suspended cells with vortexing. […] Stained cells were analyzed by flow cytometry (Sandstrom, K. et al., J Immunol Methods, 240: 55 (2000) and Zhang L. et al., Cancer Lett, 142: 129 (1999)) after removing aggregated cells through a nylon mesh and increasing the cell volume with PBS. […]
Apoptotic activity was measured by the PI method. […] Subsequently, incubation with PI leads to a reduction in the fluorescence intensity of apoptotic cells. Apoptosis was examined by the percentage of the cells wherein their fluorescence intensity was reduced. […]

[4] = system: MCF-7; assay: Apoptosis analysis by PI method in MCF-7 cells; assay type: cell-based; details: incubation with galectin-9 at least 48 hr or more
Procedure: as §2

[5] = system: KATO-III; assay: Apoptosis analysis by PI method in KATO-III cells; assay type: cell-based; details: incubation with galectin-9 at least 48 hr or more
Procedure: as §2

[6] = system: Daudi; assay: Apoptosis analysis by PI method in Daudi cells; assay type: cell-based; details: incubation with galectin-9 at least 48 hr or more
Procedure: as §2

[7] = system: HMC-1; assay: Apoptosis analysis by PI method in HMC-1 cells; assay type: cell-based; details: incubation with galectin-9 at least 48 hr or more
Procedure: as §2

[8] = system: malignant melanoma cell line MM-RU; assay: Apoptosis analysis by PI method in malignant melanoma cell line MM-RU; assay type: cell-based, human; details: incubated with galectin-9 for 72 hr, FIG. 10
Procedure: as §2

[9] = system: Jurkat T cells; details: 16 hr incubation with 1 mM galectin-9, PI, FACS
Procedure: (§3) Cytotoxicities in Jurkat T cells, K-562 leukemic cells, and normal lymphocytes were measured by flow cytometry analysis using PI. That is, PI invades into the damaged target cells when PI is added for the last 15 min of 16 hr incubation with 1 mM galectin-9. Fluorescence generated by PI is measured by FACS. Untreated cells were used as a negative control group, formalin-fixed cells as a 100% dead cell group, and H2O2 (hydrogen peroxide solution)-treated cells as a positive control group, respectively.

[10] = system: K-562 leukemic cells; details: 16 hr incubation with 1 mM galectin-9, PI, FACS
Procedure: as §3

[11] = system: normal lymphocytes; details: Normal Lymphocyte; 16 hr incubation with 1 mM galectin-9; PI, FACS
Procedure: as §3

[12] = system: MOLT-4 cells; assay: Effects of Gal-9 on DEX-, anti-Fas Ab- or etoposide-induced apoptosis; assay type: cell-based, human; details: FIG. 9
Text: The following agents were purchased from suppliers below: DEX (BioVision, CA, US), anti-Fas Ab (clone CH-11, MBL), TNFα (Genzyme, Cambridge, Mass., US), C2 ceramide (SIGMA), and etoposide (Biovision).
Effects of Gal-9 on the apoptosis induced by other stimuli (e.g. DEX, anti-Fas Ab, and etoposide) were examined.

[13] = system: MM-RU; assay: Induction of cell aggregation in MM-RU; assay type: cell-based, human; details: for aggregation: FIG. 14
Procedure: Recombinant galectin-9 prepared via gene transfer into E. coli was added to MM-RU exogenously, and the efficacy of galectin-9 was then examined. As a result, galectin-9 induced aggregation of MM-RU at the concentration of 0.1 μM or higher. In addition, the galectin-9 efficacy was concentration-dependent, and significant between 0.3-1.0 μM.

[14] = recombinant galectin-9 added exogenously

Galectin-9: Recombinant human galectin-9 expressed in E. coli and purified on lactose-agarose
apoptosis induction, Gal9 (+) ([1]; MOLT4, incubation with galectin-9 at least 48 hr or more): 34.5 | apoptosis induction, time and dose dependence ([1]; PI method): time-dependent and dose-dependent | apoptosis induction ([1]; rGal-9 1 μM, 24 hr, FIG. 3): induced | PI-stained cells, which underwent apoptosis ([1]; rGal-9 1 μM, PI method, FIG. 1A, PBS control 14.8%): 34.5% | cells that underwent apoptosis, detectable by Annexin V staining [2]: 69.1% | apoptosis induction, Gal9 (+) ([3]; BALL-1, incubation with galectin-9 at least 48 hr or more): 26.0 | apoptosis induction ([3]; rGal-9 1 μM, 24 hr, FIG. 3): induced | apoptosis induction, Gal9 (+) [4]: 14.1 | apoptosis induction, Gal9 (+) [5]: 30.5 | apoptosis induction, Gal9 (+) [6]: 58.5 | apoptosis induction, Gal9 (+) [7]: 26.2 | apoptosis induction [8]: strongly induced | cytotoxicity, 16 hours [9]: 46.2 | cytotoxicity, 16 hours [10]: 23.4 | cytotoxicity, 16 hours [11]: 2.47 | effect of rGal-9 on anti-Fas Ab-induced apoptosis [12]: additional effects | effect of rGal-9 on etoposide-induced apoptosis [12]: additional effects | percentage (%) of apoptotic cells, rGal-9 with DEX [12]: scarcely little or no difference | aggregation ([13]; 2 hr after addition): aggregation was observed | aggregation ([13]; 12 hr after addition): more intensive aggregation | concentration at which aggregation of MM-RU was induced [13, 14]: ≥ 0.1 µM | concentration at which the efficacy was significant [13, 14]: 0.3 to 1.0 µM
